Test results: EPA's ToxRefDB 2

Experiments:
rat [1] = conditions: Subchronic oral toxicity in rodents, Feed, dose end: 3 month, group: systemic
rat [2] = conditions: Prenatal developmental toxicity study, Oral, Gavage/Intubation, dose end: 16 GD
dog [3] = conditions: Chronic toxicity, beagle, Oral, Feed, dose end: 104 week, group: systemic
mouse [4] = conditions: Carcinogenicity, other, Oral, Feed, dose end: 105 week, group: systemic
dog [5] = conditions: Subchronic oral toxicity in nonrodent, beagle, Feed, dose end: 13 week, group: systemic, systemic / pathology microscopic / kidney / pyelonephritis
rat [6] = conditions: Multigenerational reproductive toxicity study, sprague dawley, Oral, Feed, dose end: 2 generation
rat [7] = conditions: Combined chronic toxicity/carcinogenicity, wistar, Oral, Feed, dose end: 24 month, group: systemic
rat [8] = conditions: Multigenerational reproductive toxicity study, sprague dawley, Oral, Feed, dose end: 2 generation; remark: listed apart in the source
dog [9] = conditions: Chronic toxicity; beagle; Oral; Feed; dose end: 52 week; group: systemic; systemic / organ weight / liver / absolute + systemic / organ weight / liver / relative to body weight
mouse [10] = conditions: Carcinogenicity; other; Oral; Feed; dose end: 18 month; group: systemic; systemic / pathology microscopic / liver / hypertrophy + systemic / pathology microscopic / liver / necrosis
rat [11] = conditions: Combined chronic toxicity/carcinogenicity; fischer; Oral; Feed; dose end: 104 week; group: systemic; systemic / hematology / methemoglobin / methemoglobin + systemic / pathology microscopic / kidney / mineralization + systemic / pathology …
dog [12] = conditions: Subchronic oral toxicity in nonrodent, beagle, Feed, dose end: 13 week, group: systemic, systemic / clinical chemistry / alanine aminotransferase (alt/sgpt) / alanine aminotransferase (alt/sgpt) + systemic / clinical chemistry / …
rabbit = conditions: Prenatal developmental toxicity study, new zealand white, Oral, Gavage/Intubation, dose end: 18 GD
rat [13] = conditions: Prenatal developmental toxicity study, sprague dawley, Oral, Gavage/Intubation, dose end: 15 GD
mouse [14] = conditions: Subchronic oral toxicity in rodents, cd1, Feed, dose end: 13 week, group: systemic, systemic / pathology microscopic / liver / cytomegaly + systemic / pathology microscopic / spleen / hematopoietic cell proliferation + …
mouse [15] = conditions: Carcinogenicity, cd1, Oral, Feed, dose end: 20 month, group: systemic
rat [16] = conditions: Subchronic oral toxicity in rodents, fischer, Feed, dose end: 84 day, group: systemic, systemic / clinical chemistry / thyroxine (t4) / thyroxine (t4)
dog [17] = conditions: Chronic toxicity, beagle, Oral, Feed, dose end: 52 week, group: systemic
[18] = systemic / clinical chemistry / lipids, total / lipids, total + systemic / organ weight / ovary / relative to body weight + systemic / organ…
[19] = group: developmental, developmental / developmental malformation / bone / incomplete ossification + systemic / in life observation / body weight / fetal weight
[20] = group: maternal, reproductive / reproductive performance / postimplantation loss / postimplantation loss + systemic / in life observation / body weight / …
[21] = systemic / in life observation / body weight / body weight + systemic / in life observation / body weight / body weight gain
[22] = systemic / pathology microscopic / liver / focal cellular change + systemic / pathology microscopic / liver / hypertrophy + systemic / …
[23] = systemic / pathology microscopic / liver / hypertrophy
[24] = group: offspring, developmental / offspring survival late / [other] / [other]
[25] = group: parental, systemic / organ weight / kidney / relative to body weight + systemic / organ weight / spleen / absolute + systemic / organ weight / spleen…
[26] = group: parental, systemic / organ weight / liver / absolute + systemic / organ weight / liver / relative to body weight
[27] = group: offspring, developmental / offspring survival late / viability index / viability index + reproductive / offspring survival early / offspring survival …
[28] = group: parental, systemic / pathology microscopic / liver / congestion
[29] = group: developmental, developmental / developmental malformation / bone / full supernumerary + developmental / developmental malformation / bone / supernumerary
[30] = group: developmental, developmental / developmental malformation / bone / full supernumerary + developmental / developmental malformation / bone / supernumerary…
[31] = group: maternal, systemic / pathology microscopic / liver / hypertrophy + systemic / pathology microscopic / liver / vacuolization
[32] = group: maternal, systemic / pathology microscopic / liver / hypertrophy + systemic / pathology microscopic / liver / vacuolization + systemic / in life …
[33] = group: developmental, developmental / developmental malformation / bone / delayed ossification + developmental / developmental malformation / bone / full …
[34] = group: maternal, systemic / in life observation / body weight / body weight gain + systemic / in life observation / body weight / body weight + systemic / in…
[35] = systemic / pathology microscopic / eye / cataract
[36] = systemic / pathology microscopic / eye / cataract + systemic / hematology / erythrocyte (rbc) count differential / erythrocyte (rbc) + …
[37] = total + systemic / clinical chemistry / phosphorus / phosphorus + systemic…
[38] = systemic / in life observation / body weight / body weight gain

For `CCOC(=O)C(C)Oc1ccc(Oc2nc3ccc(Cl)cc3o2)cc1` (configuration not stated) [Fenoxaprop-ethyl], which LEL (rat [1]; [18]) is on record?
The LEL was 1 mg/kg/day.

And the NEL (rat [1]; [18])?
The NEL was under 1 mg/kg/day.

What about the LOAEL (rat [1]; systemic / organ weight / adrenal gland / relative to body weight) of the same molecule?
Its LOAEL is 4 mg/kg/day.

What about the NOAEL (rat [1]; systemic / organ weight / adrenal gland / relative to body weight + systemic / clinical chemistry / cholesterol / cholesterol + systemic / …) of the same molecule?
The NOAEL was 1 mg/kg/day.

And the LEL (rat [2]; [19])?
Its LEL is 100 mg/kg/day.

What about the LOAEL (rat [2]; [19]) of the same molecule?
Its LOAEL is 100 mg/kg/day.

What about the NEL (rat [2]; [19]) of the same molecule?
The NEL was 32 mg/kg/day.

What about the NOAEL (rat [2]; [19]) of the same molecule?
The NOAEL was 32 mg/kg/day.

And the LEL (rat [2]; [20])?
The LEL was 100 mg/kg/day.

What about the LOAEL (rat [2]; [20]) of the same molecule?
Its LOAEL is 100 mg/kg/day.

What about the NEL (rat [2]; [20]) of the same molecule?
The NEL was 32 mg/kg/day.

And the NOAEL (rat [2]; [20])?
The NOAEL was 32 mg/kg/day.

And the LEL (dog [3]; systemic / in life observation / body weight / body weight)?
Its LEL is 0.375 mg/kg/day.

What about the LOAEL (dog [3]; [21]) of the same molecule?
The LOAEL was 1.88 mg/kg/day.

And the NEL (dog [3]; [21])?
Its NEL is 0.075 mg/kg/day.

And the NOAEL (dog [3]; [21])?
The NOAEL was 0.375 mg/kg/day.

What about the LOAEL (mouse [4]; [22]) of the same molecule?
The LOAEL was 16.6 mg/kg/day.

And the NOAEL (mouse [4]; [22])?
Its NOAEL is 5.7 mg/kg/day.

What about the LEL (mouse [4]; [23]) of the same molecule?
The LEL was 5.7 mg/kg/day.

And the NEL (mouse [4]; [23])?
The NEL was under 5.7 mg/kg/day.

And the LEL (dog [5])?
Its LEL is 2 mg/kg/day.

And the LOAEL (dog [5])?
Its LOAEL is 2 mg/kg/day.

And the NEL (dog [5])?
The NEL was 0.4 mg/kg/day.

And the NOAEL (dog [5])?
Its NOAEL is 0.4 mg/kg/day.

What about the LEL (rat [6]; [24]) of the same molecule?
The LEL was 0.25 mg/kg/day.

And the LOAEL (rat [6]; [24])?
Its LOAEL is 0.25 mg/kg/day.

And the NEL (rat [6]; [24])?
Its NEL is under 0.25 mg/kg/day.

What about the NOAEL (rat [6]; [24]) of the same molecule?
Its NOAEL is under 0.25 mg/kg/day.

What about the LEL (rat [6]; [25]) of the same molecule?
The LEL was 1.94 mg/kg/day.

What about the NEL (rat [6]; [25]) of the same molecule?
Its NEL is 0.33 mg/kg/day.

And the LOAEL (rat [6]; [26])?
Its LOAEL is 9.05 mg/kg/day.

And the NOAEL (rat [6]; [26])?
The NOAEL was 1.53 mg/kg/day.

What about the LOAEL (rat [7]; systemic / clinical chemistry / cholesterol / cholesterol + systemic / clinical chemistry / lipids, total / lipids, total) of the same molecule?
The LOAEL was 9 mg/kg/day.

What about the NOAEL (rat [7]; systemic / clinical chemistry / cholesterol / cholesterol + systemic / clinical chemistry / lipids, total / lipids, total + systemic / organ…) of the same molecule?
Its NOAEL is 1.5 mg/kg/day.

What about the NEL (rat [7]; systemic / clinical chemistry / cholesterol / cholesterol + systemic / hematology / leukocyte (wbc) count differential / leukocyte (wbc) + …) of the same molecule?
The NEL was 0.25 mg/kg/day.

What about the LEL (rat [7]; systemic / clinical chemistry / cholesterol / cholesterol + systemic / pathology microscopic / liver / glycogen liberation + systemic / …) of the same molecule?
Its LEL is 1.5 mg/kg/day.

What does the source list for `CC(C)N(C(=O)COc1nnc(C(F)(F)F)s1)c1ccc(F)cc1` [Flufenacet]?
LEL (rat [8]; [27]): 7.3 mg/kg/day; LOAEL (rat [8]; [27]): 7.3 mg/kg/day; NEL (rat [8]; [27]): 1.4 mg/kg/day; NOAEL (rat [8]; [27]): 1.4 mg/kg/day; LEL (rat [8]; [28]): 1.4 mg/kg/day; NEL (rat [8]; [28]): < 1.4 mg/kg/day; LOAEL (rat [8]; group: parental, systemic / pathology microscopic / liver / hypertrophy): 7.3 mg/kg/day; NOAEL (rat [8]; group: parental, systemic / pathology microscopic / liver / hypertrophy + systemic / pathology microscopic / liver / congestion): 1.4 mg/kg/day; LEL (dog [9]): 17.3 mg/kg/day; LOAEL (dog [9]): 17.3 mg/kg/day; NEL (dog [9]): 3.15 mg/kg/day; NOAEL (dog [9]): 3.15 mg/kg/day; LEL (mouse [10]): 2.1 mg/kg/day; LOAEL (mouse [10]): 2.1 mg/kg/day; NEL (mouse [10]): < 2.1 mg/kg/day; NOAEL (mouse [10]): < 2.1 mg/kg/day; LEL (rat [11]): 1.2 mg/kg/day; LOAEL (rat [11]): 1.2 mg/kg/day; NEL (rat [11]): < 1.2 mg/kg/day; NOAEL (rat [11]): < 1.2 mg/kg/day; LEL (dog [12]): 1.67 mg/kg/day; LOAEL (dog [12]): 6.9 mg/kg/day; NEL (dog [12]): < 1.67 mg/kg/day; NOAEL (dog [12]): 1.7 mg/kg/day; LEL (rabbit; [29]): 125 mg/kg/day; LOAEL (rabbit; [29]): 125 mg/kg/day; NEL (rabbit; [30]): 25 mg/kg/day; NOAEL (rabbit; [30]): 25 mg/kg/day; LEL (rabbit; [31]): 25 mg/kg/day; LOAEL (rabbit; [31]): 25 mg/kg/day; NEL (rabbit; [32]): 5 mg/kg/day; NOAEL (rabbit; [32]): 5 mg/kg/day; LEL (rat [13]; [33]): 125 mg/kg/day; LOAEL (rat [13]; [33]): 125 mg/kg/day; NEL (rat [13]; [33]): 25 mg/kg/day; NOAEL (rat [13]; [33]): 25 mg/kg/day; LOAEL (rat [13]; group: maternal, systemic / in life observation / body weight / body weight gain): 125 mg/kg/day; LEL (rat [13]; [34]): 125 mg/kg/day; NEL (rat [13]; [34]): 25 mg/kg/day; NOAEL (rat [13]; [34]): 25 mg/kg/day; LEL (mouse [14]): 64.2 mg/kg/day; LOAEL (mouse [14]): 64.2 mg/kg/day; NEL (mouse [14]): 18.2 mg/kg/day; NOAEL (mouse [14]): 18.2 mg/kg/day; LOAEL (mouse [15]; [35]): 7.4 mg/kg/day; NOAEL (mouse [15]; [35]): < 7.4 mg/kg/day; LEL (mouse [15]; [36]): 7.4 mg/kg/day; NEL (mouse [15]; [36]): < 7.4 mg/kg/day; LOAEL (rat [16]; total): 6 mg/kg/day; NOAEL (rat [16]; total): < 6 mg/kg/day; LEL (rat [16]; [37]): 6 mg/kg/day; NEL (rat [16]; [37]): < 6 mg/kg/day; LOAEL (dog [17]; systemic / clinical chemistry / alanine aminotransferase (alt/sgpt) / alanine aminotransferase (alt/sgpt) + systemic / clinical chemistry / …): 26.8 mg/kg/day; LEL (dog [17]; [38]): 1.14 mg/kg/day; NEL (dog [17]; [38]): < 1.14 mg/kg/day; NOAEL (dog [17]; systemic / in life observation / body weight / body weight gain + systemic / clinical chemistry / alanine aminotransferase (alt/sgpt) / …): 1.14 mg/kg/day
